Where “and” joins values, the source holds several entries; their conditions need not be identical. Identical values can stand only once. Like-named read-outs stand apart in the source and are kept apart here.
Experiments:
ischemic seizures = assay: CLP290 in the neonatal ischemic seizure model, 3 h EEG (Example 3); details: 20 mg/kg, n=4, vs vehicle (HPCD)
Description: Arrow heads indicate time of 1 hourly drug injections from start of the 3 h recording.

[1] = test system: CD1 pups with unilateral carotid ligation (ischemic seizures); details: for latency to the 1st-detected seizure: drug given IP immediately after ligation
KCC2 = assay: Western blot of KCC2 expression, ipsilateral normalized to contralateral hemisphere, post-ligation; assay type: in vivo, mouse
Description: Western blot at 3 h and 24 h post-ligation. All animals were anesthetized with chloral hydrate (90 mg/ml; IP) before being transcardially perfused. The whole brains of P7 and P10 pups were harvested at either 3 h or 24 h post-ligation, and were frozen as ipsilateral and contralateral hemisphere. The brains were stored in −80° C. until further use. Homogenized whole brain lysates were suspended in cell lysis buffer with 10% protease/phosphatase inhibitor cocktail. Total protein concentrations were quantified through Bradford Assay (Bio-Rad) at 570 nm wavelength, and the samples were diluted for 50 ug of protein at 20 ul of loading volume for gel electrophoresis.
Samples were run on 4-20% gradient 1.5 mm 15 wells SDS gels (Invitrogen) for 100-120 min with 130V, and were transferred onto nitrocellulose membranes for overnight wet-transfer for minimum of 18 hours at 30V. After the transfer, the nitrocellulose membranes underwent 1 h blocking step in odyssey buffer, before overnight incubation in primary antibodies: rabbit α-KCC2 (1:1000, Millipore; Cat. No. 07-432); rabbit α-NKCC1 (1:500, Millipore, Cat. No. AB3560P); mouse α-actin (1:10000, LI-COR Biosciences, Cat. No. 926-42214). On the next day, nitrocellulose membranes were washed with TBS containing tween detergent, and then were incubated in […] secondaries for 1 h (1:5000 for both goat α-mouse 680LT and goat α-rabbit 800CW, LI-COR Biosciences). Chemiluminescent protein bands were analyzed using the Odyssey infrared imaging system 2.1 (LI-COR Biosciences). The optical density of each protein sample was normalized to the actin bands run on each lane for internal control. The expression levels of the proteins of interest in ipsilateral hemispheres were normalized to the same in contralateral hemispheres for each pup. The human brain was recently shown to express two splice variants of NKCC1 (a and b) and the NKCC1 probe used in this study and all previous studies referenced here can only detect the NKCC1a isoform because the targeted epitope site of this probe overlaps with exon 21 that is spliced in the dominant isoform NKCC1b. A reliable pan-NKCC1 probe is not currently available.
A smaller sample of naïve age-matched controls (n=8, 4 each at P8 and P11, equal sexes) was run with the 24 h WB data (brains harvested at P8 and P11, i.e.; 24 h after P7 and P10 ligations). […] This pilot established that contralateral hemispheres were ideal controls for normalization of KCC2 and NKCC1 expression in ipsilateral injured hemispheres for this study similar to previously reported conclusions in another ischemia model.

[2] = adult mouse, 0.5 mg/kg IP, cited from earlier work
[3] = cited from earlier work
[4] = test system: CD1 mice with permanent unilateral carotid-ligation (acute ischemic seizures); assay: Video-EEG seizure burden after carotid ligation at P7, P10, P12 with PB and adjunct BTN (Example 2); assay type: in vivo, mouse; details: for reduction of seizure burden: PB 25 mg/kg IP 1 h after ligation; for effect of adjunct BTN on PB-efficacy: BTN 0.1-0.2 mg/kg IP 2 h post-ligation
Description: Experimental design. […] All surgery was performed under isoflurane general anesthesia, and all efforts were made to minimize suffering. All litters of CD1 mice were purchased from Charles River Laboratories Inc. (Wilmington, Mass.). Newly born litters of pups arrived at postnatal 3 or 4 days old, and were allowed to acclimate. […] Ninety two pups from 12 litters were included in the video-EEG study (n=48 male and n=44 female). The susceptibility to ischemic seizures was tested at 3 developmental ages i.e., 7, 10 and 12 days old CD1 pups (n=80 ligated and 12 shams). […] The pups underwent permanent ligation and sham surgeries followed by 3 h of EEG recording each, as described in methods (total pups=92 of which ligates P7=29, P10=24 and P12=27 and sham P7=5, P10=4 and P12=3; see Table 2). From the ligated group of pups (total n=80), the ligated-control pups also underwent 3 h EEG recordings to evaluate natural progression of ischemic seizure burden over the duration of treatment efficacy evaluated in this study (total pups n/n=26/80, P7=8, P10=9 and P12=9). […] Since the severity of stroke-injury and seizure varies between pups, the baseline EEG of each pup served as an important internal control. Additionally, since the exact time-point of onset for ischemia in human neonates is not known and may not be a single massive event, the 1 h of non-treatment also served as an important delay expected in the treatment of neonatal seizures that are detected hours after stroke in humans.
Surgical procedure for ischemic insult and electrode implantation. Animals were anesthetized with 2% isoflurane. The right common carotid artery was permanently double-ligated with 6-0 surgisilk and the outer skin closed with 6-0 monofilament nylon to induce ischemia (i.e.; ischemia was induced by unilateral common carotid ligation alone. Unlike other rat models commonly used for neonatal stroke, no global hypoxia is needed to induce acute ischemic seizures). Since the ligated carotid is not transected in our model, the intact pulsating carotid artery with silk ligatures can lead to reperfusion over time in this model. The constrictive efficacy (which drops cerebral perfusion to 40% or less) of the silk ligatures is known to diminish, due to the loss of their tensile strength in-vivo against the pulsating artery as a function of time. […] The animals were then implanted with three sub-dermal EEG electrodes (1 recording, 1 reference, and 1 ground) on the skull overlying the parietal cortex using bregma as a reference. Scalp wire electrodes made for sub-dermal use in humans (IVES EEG; Model # SWE-L25-MA, USA) were implanted, sub-dermally fixed with adhesive, in the pups. […] In this study, the recording and reference electrodes were implanted less than 1 cm apart. Pups were then allowed to recover from anesthesia in a 36° C. isothermal chamber for 3 h recording of video-EEG (FIG. 12). At the end of the recording session, the pups were returned to the dams after removal of the sub-dermal electrodes and application of local anesthetic medication.
In vivo synchronous video-EEG recording. […] Data acquisition was done using PAL-8400 software with synchronous video capture (Pinnacle Technology Inc.). […] The files were stored in .EDF format and scored in real time using the review and scoring software package.

HIE seizures = details: neonates, cited from earlier work

## O=C1N=C(N2CCCCN2)S/C1=C\c1ccc(F)cc1OC(=O)N1CCCC1 [CLP290]
Ischemic seizures
  anti-seizure activity alone: can act independently as an anti-seizure agent

## O=C(Nc1ccccc1C(=O)NC1CCCCNC1=O)c1cc2ccccc2s1 (stereo not drawn) [ANA12, N-[2-[[(Hexahydro-2-oxo-1H-azepin-3-yl)amino]carbonyl]phenyl] benzo[b]thiophene-2-carboxamide]
[1]; P7
  latency to the 1st-detected seizure: 202.3 ± 38.8 s
[1]; P7 p=0.58, P10 p=1.00
  post-treatment mortality rate vs vehicle (Fisher's exact test): did not show a statistical significance
[1]; P7 pups
  anti-seizure effect on EEG seizure burden: did not have any anti-seizure effect
[1]; P7 vs P10, baseline seizure burden
  age- and sex-dependent seizure susceptibility to ischemic seizures: not altered
[1]; P10
  latency to the 1st-detected seizure: 245.8 ± 39.8 s
[1]; P10 pups
  anti-seizure effect on EEG seizure burden: did not have any anti-seizure effect
KCC2; 3 h post-ischemia
  effect on post-ischemic degradation of KCC2 expression: underwent degradation of KCC2
KCC2; P7, 3 h post-ischemia
  downregulation of KCC2 expression: 15-20%
KCC2; P7, 24 h post-ischemia
  KCC2 degradation compared to the contralateral hemisphere: 15-18%
KCC2; P7 and P10, 24 h post-ischemia
  effect on post-ischemic degradation of KCC2 expression: failed to prevent the post-ischemic KCC2 degradation
KCC2; P10, 24 h post-ischemia
  KCC2 degradation compared to the contralateral hemisphere: ~12%
[2]; 0.5 h
  brain concentration: 400 nM
[2]; 6 h
  brain concentration: 10 nM

## CCC1(c2ccccc2)C(=O)NC(=O)NC1=O [PB, phenobarbital]
[3]; immature rodents
  half-life: ~900 min
[4]; P10
  reduction of seizure burden: 61%
[4]; P12
  reduction of seizure burden: 64%
[1]; P10 pups, ANA12 2.5 mg/kg IP after ligation (or none), PB 25 mg/kg IP at 1 h, 2nd h vs baseline EEG
  percent PB seizure suppression over baseline: 68%

## CCCCNc1cc(C(=O)O)cc(S(N)(=O)=O)c1Oc1ccccc1 [BTN, bumetanide]
[3]; rodents
  half-life: < 30 min and ~30 min
HIE seizures; clinical trial terminated
  efficacy for HIE seizures: inefficacy
HIE seizures
  safety finding: ototoxicity
[4]; P7
  effect of adjunct BTN on PB-efficacy: did not improve PB-efficacy
[4]; P7, PB 25 mg/kg at 1 h, BTN 0.1-0.2 mg/kg at 2 h post-ligation
  anti-seizure effect on total time spent seizing on EEG: failed to have any significant anti-seizure effect
[4]; P10
  effect of adjunct BTN on PB-efficacy: PB-induced seizure suppression was lost
[4]; P12
  effect of adjunct BTN on PB-efficacy: failed to act as an effective adjuvant
[4]; any age (P7, P10, P12)
  electrographic seizure scores after follow-on BTN: did not add any significant therapeutic benefit
[1]; P10, ANA12+PB treated pups, BTN 0.1-0.2 mg/kg IP, 3rd h
  adjunct anti-seizure effect of BTN given 1 h after PB: significantly blunted PB-efficacy by increasing the seizure burden
